This note sets out measurements from patent US20190032115A1, “GENETIC TESTING FOR […] GRAM-NEGATIVE PROTEUS AGAINST ANTIMICROBIAL AGENTS” (Ares Genetics GmbH, priority 2015, published 2019).

This test concerns Proteus strains (583 clinical isolates). Kind of test: Antimicrobial susceptibility testing (AST) on frozen reference panels, minimal inhibitory concentration (MIC) read visually. The test is classed as cell-based, Proteus mirabilis, Proteus penneri and Proteus vulgaris. The note with it: classical AST. Here is the method: The inventors selected 583 Proteus strains from the microbiology strain collection at Siemens Healthcare Diagnostics (West Sacramento, Calif.) for susceptibility testing and whole genome sequencing.
Frozen reference AST panels were prepared following Clinical Laboratory Standards Institute (CLSI) recommendations. The following antimicrobial agents (with μg/ml concentrations shown in parentheses) were included in the panels: Amoxicillin/K Clavulanate (0.5/0.25-64/32), Ampicillin (0.25-128), Ampicillin/Sulbactam (0.5/0.25-64/32), Aztreonam (0.25-64), Cefazolin (0.5-32), Cefepime (0.25-64), Cefotaxime (0.25-128), Ceftazidime (0.25-64), Ceftriaxone (0.25-128), Cefuroxime (1-64), Cephalothin (1-64), Ciprofloxacin (0.015-8), Ertepenem (0.12-32), Gentamicin (0.12-32), Imipenem (0.25-32), Levofloxacin (0.25-16), Meropenem (0.12-32), Piperacillin/Tazobactam (0.25/4-256/4), Tetracycline (0.5-64), Tobramycin (0.12-32), and Trimethoprim/Sulfamethoxazole (0.25/4.7-32/608). […]
Isolates were cultured on trypticase soy agar with 5% sheep blood (BBL, Cockeysville, Md.) and incubated in ambient air at 35±1° C. for 18-24 h. […] Panel results were read visually, and minimal inhibitory concentrations (MIC) were determined.
Proteus strains to be tested were seeded on agar plates and incubated under growth conditions for 24 hours. […] Bacterial growth was determined by observing turbidity. […]

In the case of `CC1(C)S[C@@H]2[C@H](NC(=O)[C@H](N)c3ccccc3)C(=O)N2[C@H]1C(=O)O` [ampicillin, Ampicillin], the “resistance of Proteus observed against the agent” value is on record as “high resistance”.
